Source: patent publication US20250000874A1, “BACTERIAL METABOLITES AND THEIR USE IN REDUCING INFLAMMATION” (LOYOLA UNIVERSITY OF CHICAGO, priority 2023, published 2025)

Key:
[1] = system: NF-kB; experiment: MQ on translocation of NF-kB (p65) to the nucleus in HCECs, western blot; assay type: cell-based, human; conditions: MQ 50 μM overnight, FLA 100 ng/ml 3 hours
Protocol: Materials and Methods: Human corneal epithelial cells were grown in culture. Cells were then plated in DMEM. The cells cultures were then kept at 37° C. with 5% CO2. Once ready, HCECs were then incubated with MQ at a concentration of 50 uM overnight. […] Samples were treated for 3 hours and then samples were collected. Nuclear and cytoplasmic fractions were obtained using 0.1% NP-40 buffer. Cells were pelleted and the supernatant was discarded. Cells were then treated with 25 μl of NP-40 lysis buffer. Upon addition of the buffer cells were centrifuged for 10 minutes at 3000 rpm at 4° C. The supernatant was collected which is the cytoplasmic fraction and the remaining pellet was the nuclear fraction. The pellet was then washed three times to remove any remaining cytoplasmic fraction.
Both fractions were then treated with 2x SDS loading buffer and the protein was denatured at 100° C. and placed on ice. Proteins were run on a gel at […] until the dye front neared the bottom of the gel. Protein was then dry transferred to a membrane. The membrane was blocked in 5% blocking buffer overnight. The following day the membrane was washed three times with PBS-T and anti-mouse p65-NF-kB rabbit polyclonal antibody was added. […]
The inhibitory effects on the translocation of NF-kB from the cytoplasm to the nucleus following stimulation with FLA was also assessed. […]

[2] = system: human corneal epithelial cells (HCECs); experiment: JE on TLR5 agonist (flagellin)-induced IL-6 in HCECs; assay type: cell-based; conditions: JE 50 μM overnight, flagellin 6 or 24 hours, ELISA
Protocol: FIG. 11. Probiotic bacteria metabolite JE inhibits TLR5 agonist-induced IL-6 in HCECs. HCECs were pretreated with 50 µM JE overnight and then stimulated with 0.1 μg/ml flagellin for the indicated time. The effect of TLR5 agonist (flagellin) on IL-6 secretion were measured in cell culture supernatants by ELISA. *, P<0.05.
To test if JE could be used as a therapeutic agent, we tested its effects on a dry eye disease model. Dry eye disease is characterized by inflammation in ocular surface. First, we tested if JE can inhibit production of pro-inflammatory cytokine IL-6 by corneal epithelial cells stimulated by TLR5 agonist flagellin. Thus, SV 40 immortalized human corneal epithelial cells (HCECs) were with JE at 50 μM overnight and they are subsequently exposed to TLR5 agonists (flagellin isolated from Pseudomonas aeruginosa) for 6 or 24 hours. The cell culture supernatants were collected and used for ELISA to determine the concentrations of IL-6. […] Probiotic bacteria-derived metabolite (JE) suppressed the TLR5 agonist-induced IL-6 production (FIG. 11).

[3] = system: BMDMs; experiment: JE on TNF-α and IL-6 secretion by BMDMs upon LPS and TLR agonists; assay type: cell-based, mouse
Protocol: (§1) FIG. 16. The Effect of JE on TNF-α Secretion by BMDMs in Response to Stimulation by Different Concentrations of LPS. BMDMs were isolated and cultured, as mentioned before. Macrophages were incubated overnight with JE at a concentration of 50 μM at 37° C., 5% CO2. The next day, they were stimulated with two-fold dilutions of LPS at a starting concentration of 5 ng/ml for 3 hours. Supernatants were collected, and TNF-α was measured using ELISA. Data are presented as mean±SEM (n=6). *p<0.05; **p<0.01; ***p<0.001. One of two experiments is shown.
as §1, with “17.” for “16.”, “IL-6” for “TNF-α”, “cultured” for “cultured,”, “described above.” for “mentioned before.”
FIG. 18. The Effect of JE on TNF-α Secretion by BMDMs in Response to Stimulation by TLR Agonists. BMDMs were isolated and cultured as described above. Macrophages were incubated overnight with JE at a concentration of 50 μM at 37° C., 5% CO2. The following day, they were stimulated with 1 μg/ml of FLG-ST, […] of ODN, 50 μg/ml of Poly: IC, 3 μg/ml of Imiquimod, 3 μg/ml and 1.5 μg/ml of PAM-3SCk, 1 μg/ml of FSL-1 for 3 hours. Supernatants were collected, and TNF-α was measured using ELISA. Data are presented as mean±SEM (n=6). *p<0.05; **p<0.01; ***p<0.001. One of three experiments is shown.
Murine macrophages, both RAW 264.7 macrophages and bone marrow-derived macrophages (BMDMs), were seeded and then pretreated overnight with the metabolite JE. The following day, the macrophages were stimulated with one of TLR agonists, including LPS, FLA-ST, ODN, Pam3SCK4, Poly: IC LMW, FSL, and Imiquimod for 3 hours, then the production of TNF-α, and IL-6 in the culture supernatants was measured by ELISA.
Therefore, I stimulated them with two-fold dilution of the concentration I used to stimulate RAW 264.7. […] On the other hand, JE could reduce IL-6 secretion by BMDMs at 5 ng/ml of LPS as depicted in FIG. 17.
Similar to treatment of RAW 264.7 macrophages with TLR agonists, I pretreated BMDMs with JE then stimulated them with FLG, ODN, PIC, Imiquimod, PAM-3SCK, and FSL-1. […] After 3 hours, Supernatants were collected, TNF-α and IL-6 were quantified by ELISA.

Row | Compound | translocation of NF-kB to the nucleus [1] | TLR5 agonist-induced IL-6 production [2] | TNF-α secretion ([3]; JE 50 μM overnight, LPS 0.6 ng/ml 3 hours) | TNF-α secretion ([3]; JE 50 μM overnight, LPS 1.25 ng/ml 3 hours) | IL-6 secretion ([3]; JE 50 μM overnight, LPS 5 ng/ml 3 hours) | TNF-α secretion upon stimulation with TLR agonists ([3]; JE 50 μM overnight, FLG, ODN, PIC, Imiquimod, PAM-3SCK, FSL-1, 3 hours) | IL-6 secretion upon stimulation with TLR agonists ([3]; JE 50 μM overnight, TLR agonists 3 hours) | IL-6 production ([3]; JE, LPS 10 ng/ml) | TNF-α production ([3]; JE, LPS 10 ng/ml) | TNF-α production ([3]; ODN and PAM-3SCK, previous experiment before two-fold dilutions)
1 | Prednicarbate [MQ] | inhibited |  |  |  |  |  |  |  |  | 
2 | CC(=O)O[C@@H]1CC[C@H]2[C@H]3CC[C@H]4CC(F)(F)CC[C@]4(C)[C@H]3CC[C@]12C [JE, 3,3-Difluoro-5-alpha-androstan-17-beta-yl acetate] |  | suppressed | Significant inhibition | Significant inhibition | could reduce | decreased | decreased | failed to decrease | failed to decrease | did not significantly reduce
